The values that follow come from US6900187B2, “TRPM-2 antisense therapy using an oligonucleotide having 2′-O-(2-methoxy)ethyl modifications” (The University of British Columbia, priority 1999, dated 2005).

The test system of one series is human RCC CaKi-2 cells. Nature of the series: MTT assay of CaKi-2 cell growth, ODN plus taxol. Format: cell-based. The note with it: CAKI-2, CaKi-2 cells. As for the experimental part:
(§1) Immunohistochemical staining was used to characterize TRPM-2 expression in 17 RCC and normal kidney tissues obtained from radical nephrectomy specimens. TRPM-2 expression in human renal cancer cell lines ACHN, CaKi-1 and CaKi-2 was evaluated by Northern and Western blot analyses. Northern blot analysis was used to assess changes in TRPM-2 mRNA expression after antisense TRPM-2 ODN treatment. The effects of combined antisense TRPM-2 ODN and taxol treatment on CaKi-2 cell growth was examined using a MTT assay (Zellweger et al., Neoplasia 3: 360-367 (2001)).

The next series relates to human TRPM-2 mRNA. Nature of the series: TRPM-2 mRNA expression in PC-3 and TRPM-2 transfected LNCaP cells. The series is classed as cell-based. How it is done: The sequences of these ten ODNs are set forth in the attached Sequence Listing as Seq. ID. Nos. 3-12. The ten human antisense ODNs were evaluated using TRPM-2 transfected LNCaP cells and human prostate cancer PC-3 cells for their ability to inhibit expression of TRPM-2 mRNA. […] ID Nos. 4, 5, and 12. Sequence ID No. 5 corresponds to the sequence used by Sensibar, et al. that produced inhibition of TRPM-2 expression in LNCaP cells, and is complementary to the first 21 bases of the TRPM-2 mRNA. […] ID No. 4. Common to all of the effective sequences is an overlap with either the initiation or termination sites of the TRPM-2 mRNA. Thus, it was shown that inhibition of expression of TRPM-2 may be accomplished by the administration of antisense ODNs, particularly antisense ODNs which are complementary to a region of the TRPM-2 mRNA spanning either the translation initiation site or the termination site.
To identify appropriate antisense TRPM-2 ODN sequences for use in human therapy, antisense ODN sequences directed against 10 different sites of the human TRPM-2 gene (FIG. 2, Seq. ID Nos. 3-12) were synthesized and tested for their ability to decrease TRPM-2 gene expression in human prostate cancer PC-3 and transfected LNCaP cells that overexpress TRPM-2 using the same treatment protocol described in Example 2. As shown, sequences 4, 5 and 12 are active for reduction of TRPM-2 expression. These three sequences overlap or are immediately adjacent to the translation initiation or termination sites.

The next series has as its system Shionogi cells. The series is described as follows: Viability of Shionogi cells treated with chemotherapy agent plus ODN. Format: cell-based, mouse. The note with it: antisense Bcl-2 ODN added to antisense TRPM-2 ODN and taxol. As for the experimental part:
Shionogi cells maintained in vitro were treated with varying amounts of taxol alone or in combination with 500 nM antisense TRPM-2 ODN (Seq. ID. No. 1) or the mismatch control (Seq. ID No. 2). The cells were treated twice, as described in Example 2, and the percentage of viable cells remaining was determined. As shown, the inclusion of antisense TRPM-2 ODN shifted the dose-response curve to the left, lowering the IC50 by a factor of 5 to 10.
The experiment of Example 3 was repeated, with the addition of antisense Bcl-2 ODN (Seq. ID. No. 13) or a mismatch Bcl-2 ODN (Seq. ID. No. 14) in various combinations with antisense/mismatch TRPM-2 ODN and taxol. […] Thus, the targeting of additional anti-apoptotic agents appears to provide therapeutic benefits.

In another series the test system is TRPM-2. The note with it: cited from earlier work.
Series [1] concerns TRPM-2 mRNA. The series is described as follows: Northern blot of TRPM-2 expression in CaKi-2 cells. The series is classed as cell-based, human. As for the experimental part: as §1
Series [2] has as its system TRPM-2 mRNA. Nature of the series: Northern blot of TRPM-2 mRNA in Shionogi tumor cells in vitro. Format: cell-based, mouse. The note with it: varying ODN concentrations with lipofectin, treated twice over two days. As for the experimental part: The sequence selectivity of the antisense TRPM-2 ODN (Seq. ID. No. 1) was confirmed by comparing expression levels of TRPM-2 mRNA in Shionogi tumor cells maintained in vitro, after treatment with the varying levels of antisense TRPM-2 ODN or a mismatch control (Seq. ID. No. 2). To facilitate uptake of the ODNs into the cells, the ODNs were formulated in a cationic lipid carrier (Lipofectin, (Life Technologies, Inc.)). Cells were treated twice over a period of two days using the following protocol. Cells were preincubated for 20 minutes with 4 μg/ml of lipofectin in serum free OPTI-MEM (Life Technologies, Inc.) and then incubated with the medium containing the selected concentration of ODN and lipofectin for four hours. The medium was then replaced with the standard culture medium.
The amount of TRPM-2 mRNA in the cells was evaluated using Northern blot analysis. […] In contrast, TRPM-2 mRNA levels were not affected by the mismatch ODN (Seq. ID. No. 2) at any of the employed concentrations. Thus, the affect of antisense TRPM-2 ODN is apparently sequence specific.

The nature of series [3]: Side effects in Shionogi tumor mice. To be noted: 12.5 mg/kg i.p. once daily for 40 days. The series is classed as in vivo, mouse. As for the experimental part: Mice were randomly selected for treatment with murine phosphorothioate antisense TRPM-2 ODN (Seq. ID No. 1) or a mismatch control (Seq. ID No. 2) which is two bases different in sequence from the antisense TRPM-2 ODN. Each experimental group consisted of 7 mice. One day after castration, 12.5 mg/kg of antisense TRPM-2 or mismatch control ODN dissolved in phosphate buffered saline were injected intraperitoneally once daily into each mouse of 40 days. Tumor volume was measured twice weekly, and calculated by the formula length×width×depth×0.5236. Gleave et al., Cancer Res. 52: 1598-1605 (1992). Data points were reported as average tumor volumes±standard deviation.

In general, IC50 refers to the concentration needed to halve the response being measured.

Like-named read-outs stand apart in the source and are kept apart here.

Regarding `CC(=O)O[C@H]1C(=O)[C@@]2(C)[C@H]([C@H](OC(=O)c3ccccc3)[C@]3(O)C[C@H](OC(=O)[C@H](O)[C@@H](NC(=O)c4ccccc4)c4ccccc4)C(C)=C1C3(C)C)[C@]1(OC(C)=O)CO[C@@H]1C[C@@H]2O` [taxol], the IC50 with human RCC CaKi-2 cells (with antisense TRPM-2 ODN) was 50 nM; in the series on human RCC CaKi-2 cells (with mismatch control ODN), 500 nM.
“Seq. ID No. 5: human antisense phosphorothioate ODN complementary to the first 21 bases of the TRPM-2 mRNA (ATTGTCTGAGACCGTCTGGTC; DNA, all phosphorothioate, methylation of C not given here)”: the “inhibition of TRPM-2 mRNA expression” value is listed as “best results” in the series with human TRPM-2 mRNA and “active” with human TRPM-2 mRNA (listed as 5).
On to “Seq. ID No. 12: human antisense phosphorothioate ODN overlapping or adjacent to translation initiation or termination site of TRPM-2 mRNA (GCTGGGCGGAGTTGGGGGCCT; DNA, all phosphorothioate, methylation of C not given here)”, for which the results for the “inhibition of TRPM-2 mRNA expression” value in the series with human TRPM-2 mRNA and in the series with human TRPM-2 mRNA (listed as 12) were “best results” and “active”, respectively.
Consider “antisense Bcl-2 ODN: antisense Bcl-2 ODN (Seq. ID. No. 13) (antisense TCTCCCGGCTTGCGCCAT; listed as DNA, chemistry not given here)”, for which, in the series on Shionogi cells, the “cytotoxic effects of taxol in combination with antisense TRPM-2 ODN and antisense Bcl-2 ODN” value is on record as “further enhanced the cytotoxic effects of taxol”.
On to “antisense molecule corresponding to the bases 1-21 of the TRPM-2 sequence: antisense molecule of Sensibar et al.; Seq. ID No. 5 corresponds to its sequence (antisense ATTGTCTGAGACCGTCTGGTC; listed as DNA, chemistry not given here)”, for which the apoptotic cell death entry in the series with TRPM-2 (LNCaP cells exposed to TNFα) was “increase in apoptotic cell death”. The “expression of TRPM-2” value with TRPM-2 (transfected LNCaP cells) is given as “substantial reduction in expression of TRPM-2”.
“mismatch control ODN: mismatch control two bases different in sequence from the antisense TRPM-2 ODN (DNA GCACAGCAGCAGGATCTTCAT; DNA, backbone and methylation of C not given here)”: in the series with TRPM-2 mRNA [1], the “TRPM-2 expression in CaKi-2 cells” value is on record as “not”. Moreover, the “TRPM-2 mRNA levels in Shionogi cells” value in the series with TRPM-2 mRNA [2] is “not affected”. Also, the side effects entry in series [3] is “No side effects”.
